Experimental data: patent publication US20260022143A1, “Cyclic Peptide Inhibitors of IL-23” (JANSSEN PHARMACEUTICA NV, priority 2022, published 2026)

Assay: Exposed Polar Surface Area (EPSA)
Format: physicochemical
Conditions: SFC on Chirex 3014 column; sample 1 mM DMSO stock; read-out: EPSA
Excerpt: Exposed Polar Surface Area (EPSA) is an experimental descriptor of molecular polarity obtained from chromatographic retention in supercritical fluid chromatography (SFC).
The stationary phase (Chirex 3014(S)-valine and (R)-1-(alpha-naphthyl) ethylamine) was selected for its balance of lipophilic and polar attributes and its capacity to separate compounds with wide polarity differences. The mobile phase consists of methanol (+Ammonium formate) and CO2. Polar compounds are retained stronger under these conditions and a low-slope gradient of methanol achieves elution based on increasing polarity of the mobile phase. Results are normalized using calibration standards generating a linear relationship between retention times and EPSA values. The unit of EPSA is Å^2.
Along with the measurement of compounds of interest, a series of 8 calibration standards (see Materials) are analyzed generating a linear relationship between retention times and EPSA value. The 8 compounds used as calibration standard have their own EPSA value defined by G. Goetz based on the comparison with TPSA (see G. Goetz, L. Philippe and M. Shapiro, “EPSA: A novel supercritical fluid chromatography technique enabling the design of permeable cyclic peptides,” ACS Med. Chem. Lett., vol. 5, pp. 1167-1172, 2014 for more information). The slope from the linear relationship between EPSA values of these eight compounds and their retention times is used to determine the EPSA value of each compound of interest that's measured under the same condition using the equation as below: […]
The mixture of calibrations standard is reinjected every 20 compounds to validate the stability of the retention time.
The mobile phase modifier consists of ammonium formate LC_MS grade (>99%) (CAS number 540-69-2) diluted to 20 mM in HPLC grade Methanol (MeOH, CAS number 67-56-1) and liquid C02 SFC grade (CAS number 124-38-9).
Antipyrine (CAS number: 60-80-0) Chlorpromazine hydrochloride (CAS number: 69-09-0), desipramine hydrochloride (CAS number: […]), pindolol (CAS Number: 13523-86-9), diclofenac (CAS number: 15307-79-6)), m-nitro benzoic acid (CAS number: 121-92-6), bumetanide (CAS number: 28395-03-1), furosemide (CAS number: 54-31-9) were purchased from Sigma Aldrich (Steihneim, Germany).
All analyses were performed on a ultra performance convergence chromatography (UPC™) apparatus (Waters, Milford, MA, USA) equipped with a sample manager, a binary solvent delivery pump (BSM), a column manager, a convergence manager (automated back pressure regulator), a photo diode array detector (DAD) with a high pressure flow cell, and a mass detector simple quadrupole QDa. After the UV detector, the effluent of the SFC was mixed with an eluent consist of mixture MeOH/water (+0.3% Ammonia) 95/5 delivered by a make up pump with a flow rate of 0.4 mL/min and then split to the QDa using a splitter. The instrument was controlled, and data were processed with Masslynx 4.1.
The Analyses were performed using a 4.6×50 mm Chirex 3014(S)-valine and (R)-1-(alpha- naphthyl) ethylamine column (Phenomenex, Le Pecq, France) with 5 um particle and 100A pore size. The flow rate was 4 mL/min with the outlet pressure set to 14 MPa. The injection volume was 2 μL. the mobile phase composition was varied from 5% to 60% modifier at 20%/ min in a linear gradient, holding at 60% for 1.45 min and reverting to the original 5% until the end of the run. Data are acquired during 5 min. An equilibration time of 1 min is applied between 2 injections resulting in an injection every 6 min. each sample is analyzed in duplicate, resulting in a sample to sample turnaround time of 12 min.
The column temperature was set to 35° C. The mass detector was used in full scan from 100 to 800 for small molecules and from 500 to 1200 for peptides.
Each sample is delivered by compound logistics from DMSO stock solution without dilution. The concentration is 1 mM and the volume is 60 μL.

Question: Which EPSA does the source give for `CC(=O)NCCCC[C@@H]1NC(=O)[C@H](Cc2c[nH]c3c(C)cccc23)NC(=O)[C@H]([C@@H](C)O)NC(=O)[C@H](CC(N)=O)NC(=O)[C@@H](NC(C)=O)C(C)(C)SSC(C)(C)[C@@H](C(=O)N[C@@H](Cc2ccc(OCCN)cc2)C(=O)N[C@@H](Cc2ccc3ccccc3c2)C(=O)N[C@@](C)(CCCCN)C(=O)N[C@H](CCCCNC(C)=O)C(=O)N[C@@H](CC(N)=O)C(=O)N[C@H](CC(C)C)C(=O)N(C)[C@H](Cc2ccc(O)cc2)C(N)=O)NC1=O` (racemic) [compound 6, MeCO-Pen(3)-N-T-7MeW-K(Ac)-Pen(3)-AEF-2Nal-aMeK-k(Ac)-N-dL-NMeDTyr-CONH2] here?
Answer: 170 A^2

Question: With `CC(=O)NCCCC[C@@H]1NC(=O)[C@H](Cc2c[nH]c3c(C)cccc23)NC(=O)[C@H]([C@@H](C)O)NC(=O)[C@H](CC(N)=O)NC(=O)[C@@H](NC(=O)C(COCCOCC[N+](C)(C)C)NC(C)=O)C(C)(C)SSC(C)(C)[C@@H](C(=O)N[C@@H](Cc2ccc(OCCCCC[N+](C)(C)C)cc2)C(=O)N[C@@H](Cc2ccc3ccccc3c2)C(=O)NC2(C(=O)N[C@@H](CCC(=O)O)C(=O)N[C@@H](CC(N)=O)C(=O)N[C@@H](Cc3cccnc3)C(=O)N(C)CC(N)=O)CCOCC2)NC1=O` (mixture of isomers) [compound 555, MeCO-APEG2Ser(RS)-Pen(3)-N-T-7MeW-K(Ac)-Pen(3)-TMAPF-2Nal-THP-E-N-3Pya-Sar-CONH2] as the molecule, how does the EPSA read?
Answer: 171 A^2

Question: With `CC(=O)N(C)CCCC[C@H](NC(=O)C1(NC(=O)[C@H](Cc2ccc3ccccc3c2)NC(=O)[C@H](Cc2ccc(OCCCCC[N+](C)(C)C)cc2)NC(=O)[C@H]2NC(=O)[C@H](COCCOCC[N+](C)(C)C)NC(=O)[C@H](Cc3c[nH]c4c(C)cccc34)NC(=O)[C@H]([C@@H](C)O)NC(=O)[C@H](CC(=O)N(C)C)NC(=O)[C@@H](NC(=O)CCOCCOCC[N+](C)(C)C)C(C)(C)SSC2(C)C)CCOCC1)C(=O)N[C@@H](CC(N)=O)C(=O)N[C@@H](Cc1cccnc1)C(=O)N(C)CC(=O)N(C)C` (relative stereo) [compound 247, cPEG3aCO-Pen(3)-N(N(Me)2)-T-7MeW-APEG2Ser(S*)-Pen(3)-TMAPF-2Nal-THP-K(NMeAc)-N-3Pya-Sar-CON(Me)2] as the molecule, how does the EPSA read?
Answer: 145 A^2

Question: Which EPSA does the source give for `CC(=O)N[C@@H]1C(=O)N[C@@H](CC(=O)N(C)C)C(=O)N[C@@H]([C@@H](C)O)C(=O)N[C@@H](Cc2c[nH]c3c(C)cccc23)C(=O)N[C@@H](COCCOCC[N+](C)(C)C)C(=O)N[C@H](C(=O)N[C@@H](Cc2ccc(OCCOCCOCC[N+](C)(C)C)cc2)C(=O)N[C@@H](Cc2ccc3ccccc3c2)C(=O)NC2(C(=O)N[C@@H](COCCOCC[N+](C)(C)C)C(=O)N[C@@H](CC(N)=O)C(=O)N[C@@H](Cc3cccnc3)C(=O)N(C)CC(=O)N(C)C)CCOCC2)C(C)(C)SSC1(C)C` (relative stereo) [compound 256, MeCO-Pen(3)-N(N(Me)2)-T-7MeW-APEG2Ser(S*)-Pen(3)-APEG3F-2Nal-THP-APEG2Ser(S*)-N-3Pya-Sar-CON(Me)2] here?
Answer: 142 A^2

Question: Which EPSA does the source give for `CC(=O)N(C)CCCC[C@@H]1NC(=O)[C@H](Cc2c[nH]c3c(C)cccc23)NC(=O)[C@H]([C@@H](C)O)NC(=O)[C@H](CC(=O)N(C)C)NC(=O)[C@@H](NC(=O)CCOCCOCC[N+](C)(C)C)C(C)(C)SSC(C)(C)[C@@H](C(=O)N[C@@H](Cc2ccc(OCCN(CCOCC[N+](C)(C)C)CCOCC[N+](C)(C)C)cc2)C(=O)N[C@@H](Cc2ccc3ccccc3c2)C(=O)NC2(C(=O)N[C@@H](CCCCN(C)C(C)=O)C(=O)N[C@@H](CC(N)=O)C(=O)N[C@@H](Cc3cccnc3)C(=O)N(C)CC(=O)N(C)C)CCOCC2)NC1=O` (relative stereo) [compound 266, cPEG3aCO-Pen(3)-N(N(Me)2)-T-7MeW-K(NMeAc)-Pen(3)-AEF(BisPEG2a)(S*)-2Nal-THP-K(NMeAc)-N-3Pya-Sar-CON(Me)2] here?
Answer: 157 A^2

Question: With `CCCCCCCCCCCC(=O)N[C@@H](CCC(=O)NCCOCCOCC(=O)NCCOCCOCC(=O)NC(COCCOCC[N+](C)(C)C)C(=O)N[C@@H]1C(=O)N[C@@H](CC(=O)N(C)C)C(=O)N[C@@H]([C@@H](C)O)C(=O)N[C@@H](Cc2c[nH]c3c(C)cccc23)C(=O)N[C@@H](CCCCN(C)C(C)=O)C(=O)N[C@H](C(=O)N[C@@H](Cc2ccc(OCCOCCOCC[N+](C)(C)C)cc2)C(=O)N[C@@H](Cc2ccc3ccccc3c2)C(=O)NC2(C(=O)N[C@@H](CCCCN(C)C(C)=O)C(=O)N[C@@H](CC(N)=O)C(=O)N[C@@H](Cc3cccnc3)C(=O)N(C)CC(=O)N(C)C)CCOCC2)C(C)(C)SSC1(C)C)C(=O)O` (relative stereo) [compound 366, C12gEPEG2PEG2CO-APEG2Ser(S*)-Pen(3)-N(N(Me)2)-T-7MeW-K(NMeAc)-Pen(3)-APEG3F-2Nal-THP-K(NMeAc)-N-3Pya-Sar-CON(Me)2] as the molecule, how does the EPSA read?
Answer: 162 A^2

Question: For `CCCCCCCCCCCCCC(=O)N[C@@H](CCC(=O)NCCOCCOCC(=O)NCCOCCOCC(=O)N[C@@H](COCCOCC[N+](C)(C)C)C(=O)N[C@@H]1C(=O)N[C@@H](CC(=O)N(C)C)C(=O)N[C@@H]([C@@H](C)O)C(=O)N[C@@H](Cc2c[nH]c3c(C)cccc23)C(=O)N[C@@H](CCCCN(C)C(C)=O)C(=O)N[C@H](C(=O)N[C@@H](Cc2ccc(OCCOCCOCC[N+](C)(C)C)cc2)C(=O)N[C@@H](Cc2ccc3ccccc3c2)C(=O)NC2(C(=O)N[C@@H](CCCCN(C)C(C)=O)C(=O)N[C@@H](CC(N)=O)C(=O)N[C@@H](Cc3cccnc3)C(=O)N(C)CC(=O)N(C)C)CCOCC2)C(C)(C)SSC1(C)C)C(=O)O` (relative stereo) [compound 367, C14gEPEG2PEG2CO-APEG2Ser(S*)-Pen(3)-N(N(Me)2)-T-7MeW-K(NMeAc)-Pen(3)-APEG3F-2Nal-THP-K(NMeAc)-N-3Pya-Sar-CON(Me)2], which EPSA is on record?
Answer: 162 A^2

Question: With `CCCCCCCCCCCC(=O)N[C@@H](CCC(=O)NCCOCCOCC(=O)NCCOCCOCC(=O)NCCCC[C@@H]1NC(=O)[C@H](Cc2c[nH]c3c(C)cccc23)NC(=O)[C@H]([C@@H](C)O)NC(=O)[C@H](CC(=O)N(C)C)NC(=O)[C@@H](NC(=O)C(COCCOCC[N+](C)(C)C)NC(=O)COCCOCCNC(=O)COCCOCCNC(=O)CC[C@H](NC(=O)CCCCCCCCCCC)C(=O)O)C(C)(C)SSC(C)(C)[C@@H](C(=O)N[C@@H](Cc2ccc(OCCOCCOCC[N+](C)(C)C)cc2)C(=O)N[C@@H](Cc2ccc3ccccc3c2)C(=O)NC2(C(=O)N[C@@H](CCCCN(C)C(C)=O)C(=O)N[C@@H](CC(N)=O)C(=O)N[C@@H](Cc3cccnc3)C(=O)N(C)CC(=O)N(C)C)CCOCC2)NC1=O)C(=O)O` (relative stereo) [compound 368, C12gEPEG2PEG2CO-APEG2Ser(S*)-Pen(3)-N(N(Me)2)-T-7MeW-K(PEG2PEG2gEC12)-Pen(3)-APEG3F-2Nal-THP-K(NMeAc)-N-3Pya-Sar-CON(Me)2] as the molecule, how does the EPSA read?
Answer: 166 A^2

Question: With `CCCCCCCCCCCCCC(=O)N[C@@H](CCC(=O)NCCOCCOCC(=O)NCCOCCOCC(=O)NCCCC[C@@H]1NC(=O)[C@H](Cc2c[nH]c3c(C)cccc23)NC(=O)[C@H]([C@@H](C)O)NC(=O)[C@H](CC(=O)N(C)C)NC(=O)[C@@H](NC(=O)[C@H](COCCOCC[N+](C)(C)C)NC(=O)COCCOCCNC(=O)COCCOCCNC(=O)CC[C@H](NC(=O)CCCCCCCCCCCCC)C(=O)O)C(C)(C)SSC(C)(C)[C@@H](C(=O)N[C@@H](Cc2ccc(OCCOCCOCC[N+](C)(C)C)cc2)C(=O)N[C@@H](Cc2ccc3ccccc3c2)C(=O)NC2(C(=O)N[C@@H](CCCCN(C)C(C)=O)C(=O)N[C@@H](CC(N)=O)C(=O)N[C@@H](Cc3cccnc3)C(=O)N(C)CC(=O)N(C)C)CCOCC2)NC1=O)C(=O)O` (relative stereo) [compound 369, C14gEPEG2PEG2CO-APEG2Ser(S*)-Pen(3)-N(N(Me)2)-T-7MeW-K(PEG2PEG2gEC14)-Pen(3)-APEG3F-2Nal-THP-K(NMeAc)-N-3Pya-Sar-CON(Me)2] as the molecule, how does the EPSA read?
Answer: 184 A^2
